Results as given in PMC5534107, “Sensitization of ASIC3 by proteinase-activated receptor 2 signaling contributes to acidosis-induced nociception” (Journal of Neuroinflammation, 2017).

Legend:
[1] = test system: ASIC3 currents in CHO cells co-expressing ASIC3 and PAR2; experiment: Whole-cell patch clamp of proton-gated currents (I pH 6.6) in CHO cells co-expressing ASIC3 and PAR2; format: cell-based, Chinese hamster
Protocol: (§1) ASIC3, ASIC1a, ASIC1b, ASIC2b, and PAR2 complementary DNAs (cDNAs) were used for heterologous expression in CHO cells as described previously (Wang et al., 2013). In brief, CHO cells were cultured at 37 °C in a humidified atmosphere of 5% CO2 and […] and passaged twice a week. Transient transfection of CHO cells was performed using HilyMax liposome transfection reagent (Dojindo Laboratories). CHO cells were maintained in F-12 Nutrient Mixture (added 1.176 g of NaHCO3/L medium) supplemented with 10% fetal bovine serum and 1% gluta-MAXTM-1 (100×; Invitrogen). When ASIC3 and PAR2 cDNAs were co-transfected, the ratio was kept at 1:1. All plasmids used contained, in addition to the desired ASIC3 cDNA, the coding sequence for enhanced green fluorescent protein to aid identification of transfected cells. Electrophysiological measurements were performed 24–48 h after transfection.
(§2) Whole-cell patch clamp and voltage clamp recordings were carried out at room temperature (22–25 °C) using a MultiClamp-700B amplifier and Digidata-1440A A/D converter (Axon Instruments, CA, USA). Recording pipettes were pulled using a Sutter P-97 puller (Sutter Instruments, CA, USA). The micropipettes were filled with internal solution containing (mM) KCl 140, MgCl2 2.5, HEPES 10, EGTA 11, and ATP 5; its pH was adjusted to 7.2 with KOH, and osmolarity was adjusted to 310 mOsm/L with sucrose. Cells were bathed in an external solution containing (mM) NaCl 150, KCl 5, CaCl2 2.5, MgCl2 2, HEPES 10, D-glucose 10; its osmolarity was adjusted to 330 mOsm/L with sucrose and its pH to 7.4. The resistance of the recording pipette was in the range of 3–6 MΩ. A small patch of membrane underneath the tip of the pipette was aspirated to form a giga seal, and then, a negative pressure was applied to rupture it, thus establishing a whole-cell configuration. The series resistance was compensated for by 70–80%. The adjustment of capacitance compensation was also done before recording the membrane currents. The membrane voltage was maintained at −60 mV in all voltage clamp experiments unless otherwise specified. Current clamp recordings were obtained by switching to current clamp mode after a stable whole-cell configuration was formed in voltage clamp mode. Only cells with a stable resting membrane potential (more negative than −50 mV) were used in the study. Signals were sampled at 10 to 50 kHz and filtered at 2 to 10 kHz, and the data were stored in compatible PC computer for off-online analysis using the pCLAMP 10 acquisition software (Axon Instruments, CA, USA).
Drugs purchased from Sigma and used in the experiments include hydrochloric acid, 2-furoyl-LIGRLO-NH2 (a PAR2-activating peptide (PAR2-AP)), trypsin, FSLLRY-NH2, APETx2, and capsazepine. Different pH values were configured with hydrochloric acid and external solution. All drugs were dissolved daily in the external solution just before use and held in a linear array of fused silica tubes (o.d./i.d. = 500 μm/200 μm) connected to a series of independent reservoirs. The application pipette tips were positioned ∼30 μm away from the recorded neurons. The application of each drug was driven by gravity and controlled by the corresponding valve, and rapid solution exchange could be achieved within about 100 ms by shifting the tubes horizontally with a PC-controlled micromanipulator. Cells were constantly bathed in normal external solution flowing from one tube connected to a larger reservoir between drug applications. In some experiments where GDP-β-S (Sigma), U-73122(Sigma), and GF109203X (RBI) were applied for intracellular dialysis through recording patch pipettes, they were dissolved in the internal solution before use. To ensure that the cell interior was perfused with the dialysis drug, there was at least a 30-min interval between the establishment of whole-cell access and the current measurement. […]

[2] = test system: ASIC3-like currents in rat DRG neurons; experiment: Voltage clamp of proton-evoked ASIC3-like currents in acutely isolated rat DRG neurons; format: cell-based
Description: (§3) The experimental protocol was approved by the animal research ethics committee of Hubei University of Science and Technology (No. 2016–67). All procedures conformed to international guidelines on the ethical use of animals, and every effort was made to minimize the number of animals used and their sufferings. Five- to 6-week-old Sprague–Dawley male rats were anesthetized with 7% chloral hydrate and then decapitated. The DRGs were taken out and transferred immediately into Dulbecco’s modified Eagle’s medium (DMEM, Sigma) at pH 7.4. After the removal of the surrounding connective tissues, the DRGs were minced with fine spring scissors and the ganglion fragments were placed in a flask containing 5 ml of DMEM in which trypsin (type II-S, Sigma) 0.5 mg/ml, collagenase (type I-A, Sigma) 1.0 mg/ml, and DNase (type IV, Sigma) 0.1 mg/ml had been dissolved and incubated at 35 °C in a shaking water bath for 25–30 min. Soybean trypsin inhibitor (type II-S, Sigma) 1.25 mg/ml was then added to stop trypsin digestion. The incubating solution was then replaced by external solution. Dissociated neurons were placed into a 35-mm Petri dish and kept for at least 1 h in normal external solution before the start of electrophysiological experiments. After plating of the DRG neurons, the neurons were used for experiments within 24 h. The neurons selected for electrophysiological experiment were 15–35 μm in diameter.
as §2, with “The membrane voltage was maintained at −60 mV in all voltage clamp experiments unless otherwise specified. Current clamp recordings were obtained by switching to current clamp mode after a stable whole-cell configuration was formed in voltage clamp mode. Only cells with a stable resting membrane potential (more negative than −50 mV) were used in the study. Signals were sampled at 10 to 50 kHz and filtered at 2 to 10 kHz, and the data were stored in compatible PC computer for off-online analysis using the pCLAMP 10 acquisition software (Axon Instruments, CA, USA).” left out
(§4) Drugs purchased from Sigma and used in the experiments include hydrochloric acid, 2-furoyl-LIGRLO-NH2 (a PAR2-activating peptide (PAR2-AP)), trypsin, FSLLRY-NH2, APETx2, and capsazepine. […] The application pipette tips were positioned ∼30 μm away from the recorded neurons. […]

rats = experiment: Nociceptive behavior (flinches) induced by intraplantar acetic acid in rats; format: in vivo, rat; conditions: n = 10
Protocol: Rats were placed in a 30 × 30 × 30 cm Plexiglas chamber and allowed to habituate for at least 30 min before nociceptive behavior experiments. A blind experiment was carried out. Separate groups of rats were coded and pretreated with 20 μl capsazepine (100 μM) together with vehicle and different dosages of PAR2-AP, FSLLRY-NH2, or APETx2 in the ipsilateral hind paw before injection of acetic acid. […] And nociceptive behavior (that is, number of flinches) was counted over a 5-min period starting immediately after the injection.
We finally ascertain whether PAR2-AP facilitates pain-related behaviors through interacting with ASIC3 in vivo. Acetic acid (0.6%) was injected into the right hind paws of rats and measured the number of flinches that the animals spent licking and/or lifting the injected paw. Intraplantar injection of acetic acid elicits an intense flinch/shaking response which mainly occurred during 0–5 min after injection of acetic acid. […] However, the low dose (1 μg) of PAR2-AP had no effect on the acidosis-induced nocifensive behaviors (Bonferroni’s post hoc test, P > 0.1, n = 10). In addition, the exacerbating effect of 10 μg PAR2-AP on acidosis-induced nocifensive behaviors was blocked by co-administration of 20 μg FSLLRY-NH2, a selective PAR2 antagonist (Bonferroni’s post hoc test, P < 0.01, compared with 10 μg PAR2-AP alone, n = 10; Fig. 6a).

rat DRG neurons = experiment: Current clamp of acidosis-evoked action potentials (spikes) in rat DRG neurons; format: cell-based; conditions: APETx2 2 μM; pH 6.6 for 5 s; capsazepine 10 μM
Description: as §3, with “Dissociated neurons were placed into a 35-mm Petri dish and kept for at least 1 h in normal external solution before the start of electrophysiological experiments. After plating of the DRG neurons, the neurons were used for experiments within 24 h. The neurons selected for electrophysiological experiment were 15–35 μm in diameter.” left out
as §4

[3] = test system: ASIC3 currents in CHO cells expressing alone ASIC3, but not expressing PAR2; experiment: Whole-cell patch clamp, CHO cells expressing ASIC3 alone (no PAR2); format: cell-based, Chinese hamster; conditions: 10^−5 M; P > 0.1; n = 10
Protocol: as §1
Whole-cell patch clamp and voltage clamp recordings were carried out at room temperature (22–25 °C) using a MultiClamp-700B amplifier and Digidata-1440A A/D converter (Axon Instruments, CA, USA). […]
as §4

Molecule: CN(C)CCCn1cc(C2=C(c3c[nH]c4ccccc34)C(=O)NC2=O)c2ccccc21 [GF109203X]
- PAR2-AP-induced increase of I pH 6.6 with GF109203X in the pipette solution ([1]; GF109203X 2 μM intracellular dialysis, PAR2-AP 10^−5 M for 1 min, n = 10): 3.2 ± 6.0%

Molecule: O=S(=O)(NCCNC/C=C/c1ccc(Br)cc1)c1cccc2cnccc12 [H-89]
- PAR2-AP-induced increase of I pH 6.6 with H-89 in the pipette solution ([1]; H-89 10 μM intracellular dialysis, PAR2-AP 10^−5 M for 1 min, n = 10): 15.3 ± 5.8%

Molecule: COc1ccc2c(c1)CC[C@@H]1[C@@H]2CC[C@]2(C)[C@@H](NCCCCCCN3C(=O)C=CC3=O)CC[C@@H]12 [U-73122]
- PAR2-AP-induced increase of I pH 6.6 with U-73122 in the pipette solution ([1]; U-73122 10 μM intracellular dialysis, PAR2-AP 10^−5 M for 1 min, n = 10): 6.9 ± 2.8%

Molecule: APETx2
- effect on proton-induced ASIC current (I pH 6.6) in DRG neurons ([2]; APETx2 2 μM, eight DRG neurons, capsazepine 10 μM): completely blocked
- effect on acetic acid-induced nociceptive response (rats; APETx2 20 μM, 20 μl intraplantar, P < 0.01): potently blocked
- effect on increased pain behavior induced by 10 μg PAR2-AP (rats; APETx2 20 μM, 20 μl intraplantar, P < 0.01 vs PAR2-AP): potently inhibited
- effect on acidosis-evoked spikes (rat DRG neurons): completely blocked
- effect on peak ASIC current (I pH 6.6) ([1]; APETx2 500 nM): inhibited the peak ASIC current
- effect on sustained plateau current (I pH 6.6) ([1]; APETx2 500 nM): without affecting the sustained plateau

Molecule: FSLLRY-NH2
- effect of FSLLRY-NH2 on trypsin potentiation of ASIC currents in DRG neurons ([2]; FSLLRY-NH2 10^−5 M, trypsin 10^−5 M): inhibited
- increase of peak amplitude of I pH 6.6 in DRG neurons when PAR2-AP co-treated with FSLLRY-NH2 ([2]; PAR2-AP 10^−5 M + FSLLRY-NH2 10^−5 M, capsazepine 10 μM, n = 9, P < 0.01 vs PAR2-AP alone): 9.3 ± 44%
- effect on exacerbation of acidosis-induced nocifensive behaviors by 10 μg PAR2-AP (rats; FSLLRY-NH2 20 μg co-administered, P < 0.01 vs 10 μg PAR2-AP alone): blocked
- change of peak amplitude of I pH 6.6 after pretreatment with FSLLRY-NH2 alone ([1]; 10^−5 M): ≤ 5%
- PAR2-AP-induced increase of ASIC3 currents in cells pretreated with FSLLRY-NH2 ([1]; PAR2-AP 10^−5 M + FSLLRY-NH2 10^−5 M, n = 10, P < 0.01 vs PAR2-AP alone): 7.3 ± 7.1%
- trypsin-induced increase of ASIC3 currents in cells pretreated with FSLLRY-NH2 ([1]; trypsin 10^−5 M + FSLLRY-NH2 10^−5 M, n = 10): 8.4 ± 6.2%

Molecule: trypsin: protease, possible physiological ligand of PAR2; cleaves and activates PAR2
- effect on I pH 6.6 in ASIC3-transfected CHO cells without PAR2 [3]: Neither PAR2-AP nor trypsin had an effect
- increase of peak amplitude of I pH 6.6 after pretreatment with agonist alone ([1]; 10^−5 M for 1 min, n = 10): 48.7 ± 8.3%
